# Measured values from patent publication US4264498A, “Process for the preparation of 1,3-disubstituted-2-azetidinones from triazines” (Fujisawa Pharmaceutical Co., Ltd., priority 1976, dated 1981).
# Key:
# Type in all cases: cell-based
# Staphylococcus aureus = assay: antimicrobial activity (MIC) against Staphylococcus aureus
# Pseudomonas aeruginosa = assay: antimicrobial activity (MIC) against Pseudomonas aeruginosa
# Bacillus subtilis = assay: antimicrobial activity (MIC) against Bacillus subtilis
MIC (Staphylococcus aureus) [µg/mL],MIC (Pseudomonas aeruginosa) [µg/mL],Compound,also measured
60,–,"O=C(NC1CN(C(C(=O)O)c2cccc3ccccc23)C1=O)C(=NO)c1ccccc1 (centres unmarked) [Compound E, 2-[3-(2-phenyl-2-hydroxyiminoacetamido)-2-oxo-1-azetidinyl]-2-(1-naphthyl)acetic acid]",–
–,60,"O=C(NC1CN(C(C(=O)O)c2ccco2)C1=O)C(=NO)c1ccccc1 (centres unmarked) [Compound H, 2-[3-(2-phenyl-2-hydroxyiminoacetamido)-2-oxo-1-azetidinyl]-2-(2-furyl)acetic acid]",–
250,–,"O=C(NC1CN(C(CSc2ccccc2)C(=O)O)C1=O)C(=NO)c1ccccc1 (centres unmarked) [Compound D, 2-[3-(2-phenyl-2-hydroxyiminoacetamido)-2-oxo-1-azetidinyl]-3-phenylthiopropionic acid]",–
–,2.5,"NC(CCOc1ccc(C(=NO)C(=O)NC2CN(C(C(=O)O)c3ccc(O)cc3)C2=O)cc1)C(=O)O (centres unmarked) [Compound C, 2-[3-[2-{4-(3-amino-3-carboxypropoxy)phenyl}-2-hydroxyiminoacetamido]-2-oxo-1-azetidinyl]-2-(4-hydroxyphenyl)acetic acid]",–
250,–,"O=C(NC1CN(C(Cc2ccc(O)cc2)C(=O)O)C1=O)C(=NO)c1ccccc1 (centres unmarked) [Compound F, 2-[3-(2-phenyl-2-hydroxyiminoacetamido)-2-oxo-1-azetidinyl]-3-(4-hydroxyphenyl)propionic acid]",–
–,4,"NC(CCOc1ccc(C(=NO)C(=O)NC2CN(C(C(=O)O)c3ccccc3)C2=O)cc1)C(=O)O (centres unmarked) [Compound B, 2-[3-[2-{4-(3-amino-3-carboxypropoxy)phenyl}-2-hydroxyiminoacetamido]-2-oxo-1-azetidinyl]-2-phenylacetic acid]",–
–,4,NC(CCOc1ccc(C(=NO)C(=O)NC2CN(C(C(=O)O)c3cccs3)C2=O)cc1)C(=O)O (centres unmarked) [Compound G],–
–,–,"O=C(O)CN1CC(NC(=O)Cc2ccccc2)C1=O (centres unmarked) [Compound A, 2-(3-phenylacetamido-2-oxo-1-azetidinyl)acetic acid]",MIC (Bacillus subtilis): 250 µg/mL
